# Where two headings read alike, the source gives them in different places.
# What was measured:
# [1] = Spectral sensitization of photographic silver halide emulsion; design: Yellow filter sensitivity (SY) / Red filter sensitivity (SR): scale not given here; conditions: for Spectral sensitization performance (in words): added to emulsion as aqueous solution or aqueous dispersion; for Maximum Sensitization: spectrogram, tungsten light source of 2666° K.; for Yellow filter sensitivity (SY): yellow filter SC-50, 5 seconds exposure; for Yellow filter sensitivity (SY) / Red filter sensitivity (SR): standard point Fog+0.2; for Red filter sensitivity (SR): red filter SC-60, 5 seconds exposure
# Method: A silver halide emulsion comprising pure silver bromide and having a cubic crystal form (the area ratio of the plane to the entire surface area of grain being 92%) was prepared and subjected to a sulfur sensitization treatment. The average diameter of silver halide grains contained in the emulsion was 0.68 μm, and 0.74 mol of silver halide per kg of emulsion was contained in the emulsion. One kg of the emulsion was weighed in each of pots. An aqueous solution of each of the compounds of formula (I) indicated in Tables 4 and 5 was added to the pot, and the mixture was mixed with stirring at 40° C. For the purpose of comparison, comparative compounds 1 and 2 wherein counter ion was iodide were dispersed in water and added to respective pots.
# Further, 4-hydroxy-6-methyl-1,3,3a,7-tetraazaindene in an amount of 0.1 g/kg of emulsion, sodium salt of 2,4-dichloro-6-hydroxy-1,3,5-triazine in an amount of 0.1 g/kg of emulsion and sodium dodecylbenzenesulfonate in an amount of 0.1 g/kg of emulsion in order were added thereto. The emulsion was then coated on a polyethylene terephthalate film to obtain a photographic material.
# Each of these samples was exposed through an optical wedge for 5 seconds by using a yellow filter (SC-50, a product of Fuji Photo Film Co., Ltd.) or a red filter (SC-60, a product of Fuji Photo Film Co., Ltd.) and tungsten light (5400° K.).
# A spectrogram was obtained by using a grating spectrograph having a tungsten light source of 2666° K., and the maximum sensitization was measured.
# After exposure, the samples were developed at 20° C for 4 minutes by using the following developing solution. The density of each of the developed films was measured by using a densitometer (manufactured by Fuji Photo Film Co., Ltd. Spectral sensitivity, that is, yellow filter sensitivity (SY) or red filter sensitivity (SR), sensitivity (SB) in the sensitive region inherent in silver halide, and fog were determined. Sensitivity was determined when the standard point of optical density was referred to as (Fog+0.2). Composition of Developing Solution […]
# Two volumes of water were added thereto to obtain a working solution when used.
# [2] = Solubility in solvents (dissolution in incubator, filtration through microfilter, visible absorption); type: physicochemical; conditions: for Water solubility (in words) / solubility at 12 h / Solubility in Water: water; for Solubility in Water / Solubility in MeOH / Solubility in H2O: 720 min
# Text: The solubility of some of the compounds within formula (I) was accurately measured.
# The measurement of solubility was made in the following manner.
# [3] = Table 3, read-out: Solubility in Water
smiles,measurement,setting,value
"CCN1C(=CC=c2sc(=Cc3sc(-c4ccccc4)c(-c4ccccc4)[n+]3CC)n(CC)c2=O)Sc2ccccc21 [Comparative Compound 1, reference compound]",Spectral sensitization performance (in words),[1],the desired spectral sensitivity cannot be obtained
same,Maximum Sensitization,[1]; Table 4,638 nm
same,Yellow filter sensitivity (SY),[1]; Table 4,100
same,Water solubility (in words),[2],low solubility in water
"CCn1c(=CC2=CC(=Cc3sc4cc(C)c(C)cc4[n+]3CC)CC(C)(C)C2)sc(=C2Sc3ccccc3N2C)c1=O [Comparative Compound 2, reference compound]",Spectral sensitization performance (in words),[1],the desired spectral sensitivity cannot be obtained
same,Red filter sensitivity (SR),[1]; Table 5,100
same,Maximum Sensitization,[1]; Table 5,747 nm
same,Water solubility (in words),[2],low solubility in water
CCN1C(=CC=c2sc(=Cc3sc4ccccc4[n+]3CC)n(CC)c2=O)Sc2ccc(Cl)cc21 [Compound 3],solubility at 12 h,[2]; [3],7200 µg/mL
CN1C(=CC=c2sc(=Cc3sc4ccccc4[n+]3C)n(C)c2=O)Sc2ccccc21 [Compound 7],Solubility in Water,[2]; Table 3,6200 µg/mL
CN1C(=CC=c2sc(=Cc3sc4ccccc4[n+]3C)n(C)c2=O)Sc2ccccc21 [Compound 9],Solubility in Water,[2]; Table 3,3800 µg/mL
CN1C(=CC=c2sc(=Cc3sc4ccccc4[n+]3C)n(C)c2=O)Sc2ccccc21 [Compound 10],Solubility in Water,[2]; Table 3,> 10000 µg/mL
CCN1C(=CC=c2sc(=Cc3sc4c5ccccc5ccc4[n+]3CC)n(CC)c2=O)Sc2ccc3ccccc3c21 [Compound 25],Solubility in MeOH,"[2]; 37° C., 12 hours",> 25 mM
same,Solubility in MeOH,"[2]; 37° C., 12 hours, Table 1",> 16000 µg/mL
same,solubility at 12 h,"[2]; H2O, 37° C., 12 hours, Table 1, read-out: Solubility in H2O",6560 µg/mL
same,solubility at 12 h,"[2]; H2O, 37° C., 12 hours, read-out: Solubility in H2O",10.1 mM
CCN1C(=CC=c2sc(=Cc3sc4c5ccccc5ccc4[n+]3C)n(CC)c2=O)Sc2ccc3ccccc3c21 [Compound 33],Solubility in Water,[2]; Table 3,5300 µg/mL
CCN1C(=CC=c2sc(=Cc3sc4c5ccccc5ccc4[n+]3C)n(CC)c2=O)Sc2ccc3ccccc3c21 [Compound 34],Solubility in Water,[2]; Table 3,7100 µg/mL
CCN1C(=CC=c2sc(=Cc3sc4c5ccccc5ccc4[n+]3C)n(CC)c2=O)Sc2ccc3ccccc3c21 [Compound 35],Solubility in Water,[2]; Table 3,> 10000 µg/mL
CCN1C(=CC=c2sc(=Cc3sc4c5ccccc5ccc4[n+]3C)n(CC)c2=O)Sc2ccc3ccccc3c21 [Compound 36],Solubility in Water,[2]; Table 3,4800 µg/mL
CCn1c(=Cc2sc3c4ccccc4ccc3[n+]2CC)sc(=CC=C2SCCN2C)c1=O [Compound 45],solubility at 12 h,[2]; [3],> 10000 µg/mL
CCN1C(C)=CSC1=CC=c1sc(=Cc2sc3ccccc3[n+]2CC)n(CC)c1=O [Compound 53],Solubility in H2O,"[2]; H2O, 37° C., 12 hours",> 37 mM
same,Solubility in H2O,"[2]; H2O, 37° C., 12 hours, Table 1",> 19000 µg/mL
same,Solubility in MeOH,"[2]; 37° C., 12 hours",> 33 mM
same,Solubility in MeOH,"[2]; 37° C., 12 hours, Table 1",> 17000 µg/mL
CCN1C(=CC=c2sc(=Cc3oc4c5ccccc5ccc4[n+]3CC)n(CC)c2=O)Sc2c1ccc1ccccc21 [Compound 86],Maximum Sensitization,[1]; Table 4,630 nm
same,Yellow filter sensitivity (SY),[1]; Table 4,890
CCN1C(=CC=c2sc(=Cc3sc(-c4ccccc4)c(-c4ccccc4)[n+]3CC)n(CC)c2=O)Oc2ccccc21 [Compound 88],Maximum Sensitization,[1]; Table 4,565 nm
same,Yellow filter sensitivity (SY),[1]; Table 4,2085
CCN1C(=CC=c2sc(=Cc3sc(-c4ccccc4)c(-c4ccccc4)[n+]3CC)n(CC)c2=O)Sc2ccc3ccccc3c21 [Compound 89],Maximum Sensitization,[1]; Table 4,640 nm
same,Yellow filter sensitivity (SY),[1]; Table 4,705
CCn1c(=Cc2sc(-c3ccccc3)c(-c3ccccc3)[n+]2CC)sc(=CC=C2N(C)c3ccccc3C2(C)C)c1=O [Compound 91],Maximum Sensitization,[1]; Table 4,600 nm
same,Yellow filter sensitivity (SY),[1]; Table 4,1730
CCCn1c(=Cc2sc3ccccc3[n+]2CC)sc(=CC=C2C=Cc3ccccc3N2CC)c1=O [Compound 96],Red filter sensitivity (SR),[1]; Table 5,3600
same,Maximum Sensitization,[1]; Table 5,660 nm
CC[n+]1c(C=c2sc(=CC=C3C=CN(C)C=C3)c(=O)n2C)sc2ccccc21 [Compound 98],solubility at 12 h,[2]; [3],6800 µg/mL
C=CCN1C=CC(=CC=c2sc(=Cc3sc4c5ccccc5ccc4[n+]3CC)n(CC=C)c2=O)c2ccccc21 [Compound 100],Red filter sensitivity (SR),[1]; Table 5,1685
same,Maximum Sensitization,[1]; Table 5,715 nm
